Data on six compounds can be found in patent publication US20220264877A1, “MICROBIOCIDAL PICOLINAMIDE DERIVATIVES” (SYNGENTA CROP PROTECTION AG, priority 2019, published 2022).

For series [1], the system named is Botryotinia fuckeliana (Botrytis cinerea). The series can be described thus: Botryotinia fuckeliana (Botrytis cinerea) / liquid culture (gray mould). Format: cell-based. As to conditions: 200 ppm in the formulation, Vogels broth, 24° C., 3-4 days after application, vs untreated, read-out: disease control (inhibition of growth determined photometrically). How it is done: Botryotinia fuckeliana (Botrytis cinerea)/Liquid Culture (Gray Mould) Conidia of the fungus from cryogenic storage are directly mixed into nutrient broth (Vogels broth). After placing a (DMSO) solution of test compound into a microtiter plate (96-well format), the nutrient broth containing the fungal spores is added. The test plates are incubated at 24° C. and the inhibition of growth is determined photometrically 3-4 days after application.

In series [2] the test system is Monographella nivalis (Microdochium nivale). Put plainly: Monographella nivalis (Microdochium nivale) / liquid culture (foot rot cereals). Particulars: 200 ppm in the formulation, PDB potato dextrose broth, 24° C., 4-5 days after application, vs untreated, read-out: disease control (inhibition of growth determined photometrically). Format: cell-based. As to the method:
Monographella nivalis (Microdochium nivale)/liquid culture (foot rot cereals) Conidia of the fungus from cryogenic storage are directly mixed into nutrient broth (PDB potato dextrose broth). After placing a (DMSO) solution of test compound into a microtiter plate (96-well format), the nutrient broth containing the fungal spores is added. The test plates are incubated at 24° C. and the inhibition of growth is determined photometrically 4-5 days after application.

The subject of series [3] is Mycosphaerella arachidis (Cercospora arachidicola). The series can be described thus: Mycosphaerella arachidis (Cercospora arachidicola) / liquid culture (early leaf spot). It counts as cell-based. Particulars: 200 ppm in the formulation, PDB potato dextrose broth, 24° C., 4-5 days after application, vs untreated, read-out: disease control (inhibition of growth determined photometrically). As to the method: Mycosphaerella arachidis (Cercospora arachidicola)/Liquid Culture (Early Leaf Soot) Conidia of the fungus from cryogenic storage are directly mixed into nutrient broth (PDB potato dextrose broth). After placing a (DMSO) solution of test compound into a microtiter plate (96-well format), the nutrient broth containing the fungal spores is added. The test plates are incubated at 24° C. and the inhibition of growth is determined photometrically 4-5 days after application.

Series [4] concerns Mycosphaerella graminicola (Septoria tritici). Put plainly: Mycosphaerella graminicola (Septoria tritici) / liquid culture (Septoria blotch). It counts as cell-based. As to conditions: Zymoseptoria tritici; 200 ppm in the formulation; PDB potato dextrose broth, 24° C., 4 to 5 days after application, vs untreated; read-out: disease control (inhibition of growth determined photometrically). As to the method:
Mycosphaerella graminicola (Septoria tritici)/Liquid Culture (Septoria Blotch) Conidia of the fungus from cryogenic storage are directly mixed into nutrient broth (PDB potato dextrose broth). After placing a (DMSO) solution of test compound into a microtiter plate (96-well format), the nutrient broth containing the fungal spores is added. The test plates are incubated at 24° C. and the inhibition of growth is determined photometrically 4 to 5 days after application.

The test system of a further series is Plasmopara viticola. Format: in vivo. As to conditions: 200 ppm in the formulation; grape vine leaf disks, inoculated 1 day after application, assessed 6 to 8 days after application, vs untreated.
In a further series the test system is Pythium ultimum. Put plainly: Pythium ultimum / liquid culture (seedling damping off). Particulars: Globisporangium ultimum; 200 ppm in the formulation; PDB potato dextrose broth, 24° C., 2-3 days after application, vs untreated; read-out: disease control (inhibition of growth determined photometrically). Format: cell-based. How it is done: Pythium ultimum/Liquid Culture (Seedling Damping Off) Mycelia fragments and oospores of a newly grown liquid culture of the fungus are directly mixed into nutrient broth (PDB potato dextrose broth). After placing a (DMSO) solution of test compound into a microtiter plate (96-well format), the nutrient broth containing the fungal mycelia/spore mixture is added. The test plates are incubated at 24° C. and the inhibition of growth is determined photometrically 2-3 days after application.

The test system of series [5] is Glomerella lagenarium (Colletotrichum lagenarium). Put plainly: Glomerella lagenarium (Colletotrichum lagenarium) / liquid culture (anthracnose). It counts as cell-based. Particulars: Colletotrichum orbiculare; 200 ppm in the formulation; PDB potato dextrose broth, 24° C., 3 to 4 days after application, vs untreated; read-out: disease control (inhibition of growth measured photometrically). How it is done: Glomerella lagenarium (Colletotrichum lagenarium)/Liquid Culture (Anthracnose) Conidia of the fungus from cryogenic storage are directly mixed into nutrient broth (PDB potato dextrose broth). After placing a (DMSO) solution of test compound into a microtiter plate (96-well format), the nutrient broth containing the fungal spores is added. The test plates are incubated at 24° C. and the inhibition of growth is measured photometrically 3 to 4 days after application.

Each structure is given as a SMILES string.

Regarding `CC(OC(=O)[C@H](C)NC(=O)c1nccc(NC=O)c1O)C(c1ccc(F)cc1)c1ccc(F)cc1` (stereo partly drawn) [Compound I.a.42, [2,2-bis(4-fluorophenyl)-1-methyl-ethyl] (2S)-2-[(4-formamido-3-hydroxy-pyridine-2-carbonyl)amino] propanoate], the melting point was in the range of 101 to 113 °C. Further, the inhibition at 200 ppm in series [1] was ≥ 80%. The inhibition at 200 ppm in series [2] was ≥ 80%. Moreover, in series [3], the inhibition at 200 ppm was ≥ 80%. The inhibition at 200 ppm in series [4] was ≥ 80%. Further, in the series with Plasmopara viticola, the disease control entry is listed as “at least 80%”. Moreover, the inhibition at 200 ppm in the series with Pythium ultimum is ≥ 80%.
Take `CC(C)C(=O)OCOc1c(NC=O)ccnc1C(=O)N[C@@H](C)C(=O)OC(C)C(c1ccccc1)c1ccccc1` (stereo partly drawn) [Compound I.k.33, [4-formamido-2-[[(1S)-1-methyl-2-(1-methyl-2,2-diphenyl-ethoxy)-2-oxo-ethyl]carbamoyl]-3-pyridyl]oxymethyl 2-methylpropanoate]: the inhibition at 200 ppm in series [1], in series [5], in series [2], in series [3] and in series [4] was ≥ 80% each time.
As for `CC(C)C(=O)OCOc1c(NC=O)ccnc1C(=O)N[C@@H](C)C(=O)OC(C)C(c1ccc(F)cc1)c1ccc(F)cc1` (stereo partly drawn) [Compound I.k.42, [2-[[(1S)-2-[2,2-bis(4-fluorophenyl)-1-methyl-ethoxy]-1-methyl-2-oxo-ethyl]carbamoyl]-4-formamido-3-pyridyl]oxymethyl 2-methylpropanoate], the inhibition at 200 ppm in series [1], in series [5], in series [2], in series [3] and in series [4] was ≥ 80% throughout.
Take `CC(OC(=O)[C@H](C)NC(=O)c1nccc(N)c1O)C(c1ccc(F)cc1)c1ccc(F)cc1` (stereo partly drawn) [I.w.42, [2,2-bis(4-fluorophenyl)-1-methyl-ethyl] (2S)-2-[(4-amino-3-hydroxy-pyridine-2-carbonyl)amino]propanoate]: the inhibition at 200 ppm in series [1], in series [5], in series [2], in series [3] and in series [4] was ≥ 80% throughout.
Consider `CC(C)C(=O)OCOc1c(N)ccnc1C(=O)N[C@@H](C)C(=O)OC(C)C(c1ccccc1)c1ccccc1` (stereo partly drawn) [I.y.33, [4-amino-2-[[(1S)-1-methyl-2-(1-methyl-2,2-diphenyl-ethoxy)-2-oxo-ethyl]carbamoyl]-3-pyridyl] oxymethyl 2-methylpropanoate], for which the inhibition at 200 ppm in series [1], in series [2], in series [3] and in series [4] was ≥ 80% in each case.
Take `CC(C)C(=O)OCOc1c(N)ccnc1C(=O)N[C@@H](C)C(=O)OC(C)C(c1ccc(F)cc1)c1ccc(F)cc1` (stereo partly drawn) [I.y.42, [4-amino-2-[[(1S)-2-[2,2-bis(4-fluorophenyl)-1-methyl-ethoxy]-1-methyl-2-oxo-ethyl]carbamoyl]-3-pyridyl]oxymethyl 2-methylpropanoate]: the inhibition at 200 ppm in series [1], in series [2], in series [3] and in series [4] was ≥ 80% throughout.

One may read the inhibition as the share of the control response that was lost under treatment. Broadly, the melting point is the temperature of the solid-liquid transition.
